Measurements: patent US10265296B2, “Methods for the treatment of systemic disorders treatable with mast cell stabilizers, including mast cell related disorders” (Respivant Sciences GmbH, priority 2015, dated 2019)
Read-outs that look alike come from different tables or passages of the source.

Experiments:
[1] = Single-dose, dose escalation study Part 1: pharmacokinetics of plasma and urine DSCG in healthy subjects; type: in vivo, human; details: same dose (40 mg)
Protocol: • 1. […] 200 mg oral sodium cromoglycate solution (commercially available product), oral administration. […] 200 mg oral sodium cromoglycate solution (commercially available product), oral administration.
Prior to each dosing day, subjects were admitted to the clinic in the morning for baseline (pre-dose) assessments. Subjects were required to remain in the clinic for 12 h after study drug administration on each dosing day. Treatment Visits were separated by a washout period of 2 to 5 days.
Urine DSCG levels were measured for total DSCG excretion in the urine, and the bioavailability of the DSCG was calculated from the measured levels.
Pharmacokinetic parameters and plasma concentrations are listed and summarized. The summary statistics are presented as the geometric mean, arithmetic mean, arithmetic standard deviation (SD), min, median, max and n. The geometric statistics are not presented for Tmax. Analysis of variance (ANOVA) including terms for subject and treatment are used to calculate point estimates, and confidence intervals (CI) for treatment differences with respect to PK parameters (90% CI) are calculated.

[2] = cited from earlier work

lung deposition with the 30 L device compared with the 40 L device, indicated by AUC data [1]: surprisingly higher
SMILES: O=C(O)c1cc(=O)c2c(OCC(O)COc3cccc4oc(C(=O)O)cc(=O)c34)cccc2o1 [Cromolyn sodium, cromolyn sodium]
oral bioavailability ([2]; listed as cromolyn sodium): less than 1%
oral bioavailability ([2]; listed as cromolyn): about 1%
